Assay results reported in patent US11566022B2, “3-(5-methoxy-1-oxoisoindolin-2-yl)piperidine-2,6-dione derivatives and uses thereof” (NOVARTIS AG, priority 2019, dated 2023).

Target: HiBit-WIZ fusion protein (Homo sapiens, UniProt O95785+Q96SW2)
Assay: Quantification of WIZ protein levels in HiBit tag fusion protein assay (WIZ HiBit assay in 293T cells)
Type: cell-based
Set-up: Dmax: dose or concentration left out as unconfirmed
Settings: for Dmax / remaining activity at up to 25 µM: HEK-293T; for Dmax / % degradation of WIZ (100-Amax): 100 minus Amax; for Dmax / remaining activity at up to 25 µM / % degradation of WIZ (100-Amax) / WIZ Amax: 293T cells; for Dmax: read-out: % degradation of WIZ (100-Amax); for remaining activity at up to 25 µM / WIZ Amax: DMSO-normalized, curve-fitted percentage of WIZ-HiBit remaining at 25 uM; for remaining activity at up to 25 µM: read-out: WIZ Amax; for DC50: read-out: WIZ AC50; for % degradation of WIZ (100-Amax): at 25 uM
[1] = WIZ HiBit assay in 293T cells, 10-point, 5-fold dose response, highest concentration 25 μM, about 18 hours

Sequence of HiBit-WIZ fusion protein (O95785 whole entry, the tested form may be a part): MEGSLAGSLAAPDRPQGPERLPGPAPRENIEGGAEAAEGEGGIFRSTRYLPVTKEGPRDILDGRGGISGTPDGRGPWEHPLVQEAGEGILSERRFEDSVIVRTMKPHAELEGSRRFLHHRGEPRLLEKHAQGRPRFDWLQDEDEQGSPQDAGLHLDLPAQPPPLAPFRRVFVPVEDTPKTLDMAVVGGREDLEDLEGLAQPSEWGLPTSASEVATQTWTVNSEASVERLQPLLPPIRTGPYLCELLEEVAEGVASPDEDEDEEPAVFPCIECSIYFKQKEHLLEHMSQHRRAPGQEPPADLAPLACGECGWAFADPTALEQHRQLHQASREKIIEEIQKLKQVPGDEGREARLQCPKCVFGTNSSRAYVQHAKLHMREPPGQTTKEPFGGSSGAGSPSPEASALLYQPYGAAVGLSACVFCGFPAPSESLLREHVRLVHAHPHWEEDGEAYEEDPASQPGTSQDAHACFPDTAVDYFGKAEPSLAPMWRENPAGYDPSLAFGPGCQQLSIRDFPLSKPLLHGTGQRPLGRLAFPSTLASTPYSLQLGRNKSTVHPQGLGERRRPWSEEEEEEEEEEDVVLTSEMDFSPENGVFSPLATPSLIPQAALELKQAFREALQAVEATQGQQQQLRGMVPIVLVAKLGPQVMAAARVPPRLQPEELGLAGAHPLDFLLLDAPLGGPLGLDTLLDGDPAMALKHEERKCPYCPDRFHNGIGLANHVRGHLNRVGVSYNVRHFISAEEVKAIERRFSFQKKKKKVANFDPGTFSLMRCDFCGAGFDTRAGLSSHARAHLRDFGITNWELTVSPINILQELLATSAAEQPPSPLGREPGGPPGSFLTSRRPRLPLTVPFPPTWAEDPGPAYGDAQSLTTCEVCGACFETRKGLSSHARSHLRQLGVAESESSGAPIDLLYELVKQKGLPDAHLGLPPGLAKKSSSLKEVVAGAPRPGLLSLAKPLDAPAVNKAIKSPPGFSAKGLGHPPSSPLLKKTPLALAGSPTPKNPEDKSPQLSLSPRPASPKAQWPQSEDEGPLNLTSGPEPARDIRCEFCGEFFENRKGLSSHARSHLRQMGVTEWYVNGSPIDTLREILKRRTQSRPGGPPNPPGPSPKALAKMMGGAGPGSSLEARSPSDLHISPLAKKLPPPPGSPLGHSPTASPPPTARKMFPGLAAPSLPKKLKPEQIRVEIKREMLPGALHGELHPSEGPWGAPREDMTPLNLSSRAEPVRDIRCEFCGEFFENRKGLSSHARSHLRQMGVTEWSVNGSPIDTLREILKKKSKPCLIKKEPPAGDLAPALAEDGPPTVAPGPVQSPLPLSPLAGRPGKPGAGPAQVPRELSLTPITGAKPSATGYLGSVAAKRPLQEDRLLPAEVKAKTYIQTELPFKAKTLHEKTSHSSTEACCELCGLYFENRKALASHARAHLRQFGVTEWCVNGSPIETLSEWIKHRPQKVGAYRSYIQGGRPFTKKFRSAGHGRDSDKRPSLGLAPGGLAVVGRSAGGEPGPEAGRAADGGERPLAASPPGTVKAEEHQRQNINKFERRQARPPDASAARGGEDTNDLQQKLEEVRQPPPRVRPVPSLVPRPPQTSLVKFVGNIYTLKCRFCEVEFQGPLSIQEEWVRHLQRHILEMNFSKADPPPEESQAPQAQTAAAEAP
Sequence of HiBit-WIZ fusion protein (Q96SW2 whole entry, the tested form may be a part): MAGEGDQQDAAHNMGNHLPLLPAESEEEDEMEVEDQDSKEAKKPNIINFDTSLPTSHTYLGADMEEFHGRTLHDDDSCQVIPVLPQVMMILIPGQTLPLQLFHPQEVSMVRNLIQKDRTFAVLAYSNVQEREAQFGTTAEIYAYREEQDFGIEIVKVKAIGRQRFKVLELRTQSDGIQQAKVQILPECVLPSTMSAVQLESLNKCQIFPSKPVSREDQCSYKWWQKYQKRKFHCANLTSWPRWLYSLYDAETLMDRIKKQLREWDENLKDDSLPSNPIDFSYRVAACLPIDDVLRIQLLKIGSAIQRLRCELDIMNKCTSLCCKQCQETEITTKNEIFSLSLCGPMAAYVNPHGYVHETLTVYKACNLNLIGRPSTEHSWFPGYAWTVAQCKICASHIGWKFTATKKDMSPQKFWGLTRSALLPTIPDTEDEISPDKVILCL
Sequence of HiBit-WIZ fusion protein (Q16531 whole entry partner, the tested form may be a part): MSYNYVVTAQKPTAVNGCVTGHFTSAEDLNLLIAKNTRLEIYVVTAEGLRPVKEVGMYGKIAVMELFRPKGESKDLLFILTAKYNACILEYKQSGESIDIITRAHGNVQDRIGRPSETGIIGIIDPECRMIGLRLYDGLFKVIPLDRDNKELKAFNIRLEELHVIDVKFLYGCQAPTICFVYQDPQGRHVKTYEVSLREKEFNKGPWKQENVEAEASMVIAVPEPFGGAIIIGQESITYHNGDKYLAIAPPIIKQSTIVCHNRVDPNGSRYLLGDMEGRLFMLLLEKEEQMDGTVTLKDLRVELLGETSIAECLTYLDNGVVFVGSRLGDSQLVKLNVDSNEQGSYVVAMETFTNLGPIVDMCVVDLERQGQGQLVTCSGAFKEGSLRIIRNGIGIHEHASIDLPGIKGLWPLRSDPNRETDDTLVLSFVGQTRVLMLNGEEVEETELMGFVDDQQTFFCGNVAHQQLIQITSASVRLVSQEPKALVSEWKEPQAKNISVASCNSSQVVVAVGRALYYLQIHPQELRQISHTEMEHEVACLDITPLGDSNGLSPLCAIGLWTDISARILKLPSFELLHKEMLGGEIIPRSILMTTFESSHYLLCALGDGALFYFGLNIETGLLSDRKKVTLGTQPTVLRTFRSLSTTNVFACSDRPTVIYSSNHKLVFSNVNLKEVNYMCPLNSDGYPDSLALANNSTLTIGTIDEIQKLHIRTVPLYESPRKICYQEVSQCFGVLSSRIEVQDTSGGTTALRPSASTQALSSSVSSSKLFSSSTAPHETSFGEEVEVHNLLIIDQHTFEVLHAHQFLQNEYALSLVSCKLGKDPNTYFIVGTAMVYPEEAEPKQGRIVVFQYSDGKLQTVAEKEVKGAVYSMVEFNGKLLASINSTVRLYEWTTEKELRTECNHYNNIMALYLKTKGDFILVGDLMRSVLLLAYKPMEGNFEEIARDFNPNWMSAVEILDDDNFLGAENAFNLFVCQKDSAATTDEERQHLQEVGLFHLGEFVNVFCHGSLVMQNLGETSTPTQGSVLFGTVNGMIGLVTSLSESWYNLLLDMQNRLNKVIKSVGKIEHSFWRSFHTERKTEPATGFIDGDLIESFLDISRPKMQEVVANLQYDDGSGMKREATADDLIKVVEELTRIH

Q: With `C[C@H](CC(=O)N1CCCC[C@H]1COc1ccc2c(c1)CN(C1CCC(=O)NC1=O)C2=O)c1ccccc1` (stereo partly drawn) [Compound I-72gu] as the compound, how does the Dmax read?
A: 0.2%

Q: What about the remaining activity at up to 25 µM of the same compound?
A: 99.8%

Q: What about the DC50 [1] of the same compound?
A: > 25 µM

Q: `O=C1CCC(N2Cc3cc(OC[C@H]4CCCCN4Cc4cccc5c4NCC5)ccc3C2=O)C(=O)N1` (stereo partly drawn) [Compound I-111, 3-(5-(((R)-1-(indolin-7-ylmethyl)piperidin-2-yl)methoxy)-1-oxoisoindolin-2-yl)piperidine-2,6-dione] was tested. Which Dmax did it give?
A: 90.7%

Q: What about the remaining activity at up to 25 µM of the same compound?
A: 9.3%

Q: And the DC50 [1]?
A: 0.011 µM

Q: `O=C1CCC(N2Cc3cc(OC[C@@H]4CCCCN4C(=O)c4ncn(-c5ccccc5)n4)ccc3C2=O)C(=O)N1` (stereo partly drawn) [Compound I-72dt] was tested. Which Dmax did it give?
A: 47.2%

Q: What about the remaining activity at up to 25 µM of the same compound?
A: 52.8%

Q: And the DC50 [1]?
A: > 25 µM

Q: For `CCc1nc(C)c(CN2CCCC[C@H]2COc2ccc3c(c2)CN(C2CCC(=O)NC2=O)C3=O)[nH]1` (stereo partly drawn) [Compound I-50cy], which Dmax is on record?
A: 89%

Q: What about the remaining activity at up to 25 µM of the same compound?
A: 11%

Q: And the DC50 [1]?
A: 0.922 µM

Q: Which results are given for `Cc1nn(-c2ccccc2)c(C)c1C(=O)N1CCCC[C@H]1COc1ccc2c(c1)CN(C1CCC(=O)NC1=O)C2=O` (stereo partly drawn) [Compound I-72gs]?
A: Dmax: 57.9%; remaining activity at up to 25 µM: 42.1%; DC50 [1]: 7.39 µM

Q: What does the source list for `O=C1CCC(N2Cc3cc(OC[C@@H]4CCCCN4Cc4c(F)cccc4Cl)ccc3C2=O)C(=O)N1` (stereo partly drawn) [Compound I-50n]?
A: Dmax: 98.3%; remaining activity at up to 25 µM: 1.7%; DC50 [1]: 0.022 µM

Q: For `N#Cc1ccccc1CN1CCCC[C@@H]1COc1ccc2c(c1)CN(C1CCC(=O)NC1=O)C2=O` (stereo partly drawn) [Compound I-50dz], which Dmax is on record?
A: 62.8%

Q: And the remaining activity at up to 25 µM?
A: 37.2%

Q: And the DC50 [1]?
A: 3.27 µM

Q: Which results are given for `CC(C)n1cc(C(=O)N2CCCC[C@H]2COc2ccc3c(c2)CN(C2CCC(=O)NC2=O)C3=O)cn1` (stereo partly drawn) [Compound I-72dg]?
A: Dmax: 21.1%; remaining activity at up to 25 µM: 78.9%; DC50 [1]: > 25 µM

Q: How did the Dmax turn out when `Cn1nnc2cc(CN3CCCC[C@H]3COc3ccc4c(c3)CN(C3CCC(=O)NC3=O)C4=O)ccc21` (stereo partly drawn) [Compound I-50ah] was run?
A: 44.4%

Q: And the remaining activity at up to 25 µM?
A: 55.6%

Q: What about the DC50 [1] of the same compound?
A: > 25 µM

Q: What does the source list for `O=C1CCC(N2Cc3cc(OC[C@@H]4CCCCN4Cc4cncnc4)ccc3C2=O)C(=O)N1` (stereo partly drawn) [Compound I-50cq]?
A: Dmax: 7.3%; remaining activity at up to 25 µM: 92.7%; DC50 [1]: > 25 µM

Q: With `Cn1ccc2c(CN3CCCC[C@H]3COc3ccc4c(c3)CN(C3CCC(=O)NC3=O)C4=O)cccc21` (stereo partly drawn) [Compound I-50t] as the compound, how does the Dmax read?
A: 85.2%

Q: And the remaining activity at up to 25 µM?
A: 14.8%

Q: What about the DC50 [1] of the same compound?
A: 0.269 µM

Q: Which Dmax does the source give for `Cn1ccc(-c2cccc(C(=O)N3CCCC[C@H]3COc3ccc4c(c3)CN(C3CCC(=O)NC3=O)C4=O)c2)n1` (stereo partly drawn) [Compound I-72id] here?
A: 11%

Q: What about the remaining activity at up to 25 µM of the same compound?
A: 89%

Q: What about the DC50 [1] of the same compound?
A: > 25 µM

Q: With `O=C1CCC(N2Cc3cc(OC[C@@H]4CCCCN4C(=O)c4cc(-c5ccc(Br)cc5)on4)ccc3C2=O)C(=O)N1` (stereo partly drawn) [Compound I-72ak] as the compound, how does the Dmax read?
A: 78.9%

Q: What about the remaining activity at up to 25 µM of the same compound?
A: 21.1%

Q: And the DC50 [1]?
A: 0.686 µM

Q: `O=C1CCC(N2Cc3cc(OC[C@H]4CCCCN4Cc4ccc5c(c4)OC(F)(F)O5)ccc3C2=O)C(=O)N1` (stereo partly drawn) [Compound I-184] was tested. Which Dmax did it give?
A: 92.7%

Q: What about the remaining activity at up to 25 µM of the same compound?
A: 7.28%

Q: What about the DC50 [1] of the same compound?
A: 0.00047 µM

Q: For `O=C1CCC(N2Cc3cc(OC[C@H]4CCCCN4Cc4ccc5ocnc5c4)ccc3C2=O)C(=O)N1` (stereo partly drawn) [Compound I-201, 3-(5-(((R)-1-(benzo[d]oxazol-5-ylmethyl)piperidin-2-yl)methoxy)-1-oxoisoindolin-2-yl)piperidine-2,6-dione], which Dmax is on record?
A: 80.5%

Q: And the remaining activity at up to 25 µM?
A: 19.5%

Q: And the DC50 [1]?
A: 0.019 µM

Q: For `COc1ccc(C(=O)N2CCCC[C@H]2COc2ccc3c(c2)CN(C2CCC(=O)NC2=O)C3=O)nn1` (stereo partly drawn) [Compound I-72gm], which Dmax is on record?
A: 6.8%

Q: And the remaining activity at up to 25 µM?
A: 93.2%

Q: And the DC50 [1]?
A: > 25 µM

Q: With `Cc1cccc(-c2n[nH]cc2CN2CCCC[C@@H]2COc2ccc3c(c2)CN(C2CCC(=O)NC2=O)C3=O)c1` (stereo partly drawn) [Compound I-50dj] as the compound, how does the Dmax read?
A: 99.7%

Q: And the remaining activity at up to 25 µM?
A: 0.3%

Q: What about the DC50 [1] of the same compound?
A: 2.45 µM

Q: For `O=C1CCC(N2Cc3cc(OC[C@H]4CCCCN4CC45CC(F)(C4)C5)ccc3C2=O)C(=O)N1` (stereo partly drawn) [Compound I-100, 3-(5-(((R)-1-((3-fluorobicyclo[1.1.1]pentan-1-yl)methyl)piperidin-2-yl)methoxy)-1-oxoisoindolin-2-yl)piperidine-2,6-dione], which Dmax is on record?
A: 82.2%

Q: And the remaining activity at up to 25 µM?
A: 17.8%

Q: And the DC50 [1]?
A: 0.41 µM

Q: What does the source list for `O=C1CCC(N2Cc3cc(OC[C@H]4CCCCN4Cc4ccc(C5(C(F)(F)F)CC5)cc4)ccc3C2=O)C(=O)N1` (stereo partly drawn) [Compound I-173, 3-(1-oxo-5-(((R)-1-(4-(1-(trifluoromethyl)cyclopropyl)benzyl)piperidin-2-yl)methoxy)isoindolin-2-yl)piperidine-2,6-dione]?
A: Dmax: 94.3%; remaining activity at up to 25 µM: 5.71%; DC50 [1]: 0.00022 µM

Q: Which results are given for `CCN1CCC[C@H]1C(C)Oc1ccc2c(c1)CN(C1CCC(=O)NC1=O)C2=O` (single isomer, unassigned) [Compound I-25]?
A: % degradation of WIZ (100-Amax): 46.6%; WIZ Amax: 53.4%; DC50 [1]: > 25 µM

Q: For `O=C1CCC(N2Cc3cc(OC[C@H]4CCCCN4CC4CC(O)C4)ccc3C2=O)C(=O)N1` (stereo partly drawn) [I-141a, I-141b, 3-(5-(((R)-1-(((1r,3R)-3-hydroxycyclobutyl)methyl)piperidin-2-yl)methoxy)-1-oxoisoindolin-2-yl)piperidine-2,6-dione and 3-(5-(((R)-1-(((1s,3S)-3-hydroxycyclobutyl)methyl)piperidin-2-yl)methoxy)-1-oxoisoindolin-2-yl)piperidine-2,6-dione], which “% degradation of WIZ (100-Amax)” value is on record?
A: 72.36%

Q: What about the “WIZ Amax” value of the same compound?
A: 27.64%

Q: And the AC50 [1]?
A: 2.46 µM

Q: `O=C1CCC(N2Cc3cc(OC[C@H]4CCCCN4Cc4ccc(N5CCN(C6CC6)CC5)cc4)ccc3C2=O)C(=O)N1` (stereo partly drawn) [Compound I-233, 3-(5-(((R)-1-(4-(4-cyclopropylpiperazin-1-yl)benzyl)piperidin-2-yl)methoxy)-1-oxoisoindolin-2-yl)piperidine-2,6-dione] was tested. Which Dmax did it give?
A: 81.1%

Q: And the remaining activity at up to 25 µM?
A: 18.9%

Q: And the DC50 [1]?
A: 0.00073 µM

Q: Which results are given for `N#Cc1ccn2cc(CN3CCCC[C@H]3COc3ccc4c(c3)CN(C3CCC(=O)NC3=O)C4=O)nc2c1` (stereo partly drawn) [Compound I-50c]?
A: Dmax: 38.1%; remaining activity at up to 25 µM: 61.9%; DC50 [1]: > 25 µM

Q: What does the source list for `Cn1ccc2c(CN3CCCC[C@@H]3COc3ccc4c(c3)CN(C3CCC(=O)NC3=O)C4=O)cccc21` (stereo partly drawn) [Compound I-50dy]?
A: Dmax: 96.6%; remaining activity at up to 25 µM: 3.4%; DC50 [1]: 0.019 µM

Q: What does the source list for `O=C1CCC(N2Cc3cc(OC[C@@H]4CCCCN4C(=O)[C@@H]4CCCCN4C4CC4)ccc3C2=O)C(=O)N1` (stereo partly drawn) [Compound I-72f]?
A: Dmax: 0.9%; remaining activity at up to 25 µM: 99.1%; DC50 [1]: > 25 µM

Q: `Cc1nc[nH]c1CN1CCCC[C@@H]1COc1ccc2c(c1)CN(C1CCC(=O)NC1=O)C2=O` (stereo partly drawn) [Compound I-50cs] was tested. Which Dmax did it give?
A: 71.1%

Q: And the remaining activity at up to 25 µM?
A: 28.9%

Q: And the DC50 [1]?
A: 4.41 µM

Q: Which results are given for `COc1cc(CN2CCCC[C@H]2COc2ccc3c(c2)CN(C2CCC(=O)NC2=O)C3=O)ccc1C` (stereo partly drawn) [Compound I-50s]?
A: Dmax: 84.3%; remaining activity at up to 25 µM: 15.7%; DC50 [1]: 3.8 µM

Q: `CCN1CCCC(C)(C)C1COc1ccc2c(c1)CN(C1CCC(=O)NC1=O)C2=O` (single isomer, unassigned) [Compound I-17, 3-(5-((1-ethyl-3,3-dimethylpiperidin-2-yl)methoxy)-1-oxoisoindolin-2-yl)piperidine-2,6-dione] was tested. Which Dmax did it give?
A: 26.4%

Q: What about the remaining activity at up to 25 µM of the same compound?
A: 73.6%

Q: And the DC50 [1]?
A: > 25 µM
